Broadly, the Papp is the rate of passage across a membrane or cell layer, normalised by area and donor concentration. Read a low Papp as slow passage. Broadly, the IC50 is the point on the concentration scale where inhibition reaches its midpoint. In general, logD refers to the decadic logarithm of the distribution of all forms, ionised or not, between an organic phase and buffer at a given pH.

Consider 8 molecules from patent US20240270715A1, “INHIBITORS OF TRANSGLUTAMINASES” (ZEDIRA GMBH, priority 2021, published 2024).

Series [1] in a line: Caco-2 permeability assay (CacoReady kit). It counts as in vitro ADME. The following applies: human. The essentials:
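Apparent permeability coefficients (Papp) were measured across Caco-2 cell barriers using a ready-to-use kit run per the supplier's protocol. Values serve as a predictor of oral/intestinal bioavailability.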
A general note: Caco-2 monolayers are a common model of the intestinal barrier.

Series [2] has as its target T1, recombinant human transglutaminase 2 (Homo sapiens, UniProt P21980).
T1 sequence (P21980 1-687): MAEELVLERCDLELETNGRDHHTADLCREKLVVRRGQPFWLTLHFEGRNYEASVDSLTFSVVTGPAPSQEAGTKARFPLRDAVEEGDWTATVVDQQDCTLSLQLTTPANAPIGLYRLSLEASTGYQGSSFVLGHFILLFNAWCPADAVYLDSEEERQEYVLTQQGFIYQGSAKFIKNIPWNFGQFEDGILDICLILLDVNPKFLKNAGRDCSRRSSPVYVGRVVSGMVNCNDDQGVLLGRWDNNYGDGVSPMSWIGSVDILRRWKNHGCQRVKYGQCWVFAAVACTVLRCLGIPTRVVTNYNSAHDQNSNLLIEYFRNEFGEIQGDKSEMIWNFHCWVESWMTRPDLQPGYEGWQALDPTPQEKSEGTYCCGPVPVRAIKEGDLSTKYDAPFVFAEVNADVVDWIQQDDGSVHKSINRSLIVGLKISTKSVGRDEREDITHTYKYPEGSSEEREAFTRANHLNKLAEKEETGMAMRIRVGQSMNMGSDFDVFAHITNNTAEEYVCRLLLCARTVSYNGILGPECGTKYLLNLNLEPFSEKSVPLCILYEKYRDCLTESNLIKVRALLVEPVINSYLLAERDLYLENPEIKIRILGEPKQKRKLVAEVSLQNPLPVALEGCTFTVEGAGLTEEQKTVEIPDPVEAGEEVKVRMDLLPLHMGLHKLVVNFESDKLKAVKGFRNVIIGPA
The series can be described thus: Transglutaminase assay: incorporation of dansylcadaverine into dimethylcasein (DCC-assay). The conditions noted are these: recombinant human TG2 10 nM, dansylcadaverine/dimethylcasein; read-out: IC50 TG2. It is filed as biochemical. The essentials:
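Recombinant human TG2 (10 nM final) incorporates dansylcadaverine (16.7 μM) into N,N-dimethylcasein (4 μM) in Tris-HCl buffer, pH 8.0, with 10 mM CaCl2 and 10 mM glutathione. Fluorescence (λex 330, λem 500 nm) followed 30 min. The slope between 20–30 min gives activity versus DMSO control, and IC50 comes from the concentration–activity plot.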

Series [3] in a line: Log D by shake flask method (octanol / PBS pH 7.4, HPLC). It is filed as physicochemical. The following applies: octanol / PBS pH 7.4, shake flask; read-out: logD. The gist of the method:
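Shake-flask partitioning of compound between octanol and PBS at pH 7.4, with phase concentrations quantified by HPLC. The value reported is Log D.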

A value given as a limit tells only on which side of the number the result lay.

The molecule `CCNC(=O)C(=O)CC[C@H](NC(=O)c1oc2ccccc2c1C)C(=O)Nc1cccn(CC(=O)NC2C3CC4CC(C3)CC2C4)c1=O` (stereo partly drawn) [Compound I-31, (S)-N1-ethyl-N6-(1-(2-(2-adamantylamino)-2-oxoethyl)-2-oxo-1,2-dihydropyridin-3-yl)-5-(3-methylbenzofuran-2-carboxamido)-2-oxohexanediamide] yielded a Papp in series [1] of 1 to 10 ×10⁻⁶ cm/s. Moreover, the IC50 in series [2] was less than 150 nM. The logD in series [3] is 3 to 5.
`CCNC(=O)C(=O)CC[C@H](NC(=O)c1oc2ccccc2c1Cl)C(=O)Nc1cccn(CC(=O)NC2C3CC4CC(C3)CC2C4)c1=O` (stereo partly drawn) [Compound I-32, (S)-2-(3-chlorobenzofuran-2-carboxamido)-N6-ethyl-N1-(1-(2-(2-adamantylamino)-2-oxoethyl)-2-oxo-1,2-dihydropyridin-3-yl)-5-oxohexanediamide] displayed a Papp in series [1] of 1 to 10 ×10⁻⁶ cm/s. Further, in series [2], the IC50 was less than 150 nM. For the same molecule, the logD in series [3] was in the range of 3 to 5.
For `CCNC(=O)C(=O)CC[C@H](NC(=O)c1cc2c(Br)cccc2o1)C(=O)Nc1cccn(CC(=O)NC2C3CC4CC(C3)CC2C4)c1=O` (stereo partly drawn) [Compound I-33, (S)-2-(4-bromobenzofuran-2-carboxamido)-N6-ethyl-N1-(1-(2-(2-adamantylamino)-2-oxoethyl)-2-oxo-1,2-dihydropyridin-3-yl)-5-oxohexanediamide] the same measures were 1 to 10 ×10⁻⁶ cm/s, less than 150 nM and 3 to 5.
In the case of `CCNC(=O)C(=O)CC[C@H](NC(=O)c1cc2ccccc2s1)C(=O)Nc1cccn(CC(=O)NC2C3CC4CC(C3)CC2C4)c1=O` (stereo partly drawn) [Compound I-34, (S)-2-(benzo[b]thiophene-2-carboxamido)-N6-ethyl-N1-(1-(2-(2-adamantylamino)-2-oxoethyl)-2-oxo-1,2-dihydropyridin-3-yl)-5-oxohexanediamide], the Papp in series [1] lay in the range of 1 to 10 ×10⁻⁶ cm/s. In addition, the IC50 in series [2] is less than 150 nM. The logD in series [3] was in the range of 3 to 5.
Turning to `CCNC(=O)C(=O)CC[C@H](NC(=O)c1cc2cccc(F)c2s1)C(=O)Nc1cccn(CC(=O)NC2C3CC4CC(C3)CC2C4)c1=O` (stereo partly drawn) [Compound I-35, (S)-N1-ethyl-5-(7-fluorobenzo[b]thiophene-2-carboxamido)-N6-(1-(2-(2-adamantylamino)-2-oxoethyl)-2-oxo-1,2-dihydropyridin-3-yl)-2-oxohexanediamide], the Papp in series [1] lay within 1 to 10 ×10⁻⁶ cm/s. In addition, the IC50 in series [2] is less than 150 nM. Besides, in series [3], the logD fell in the range of 3 to 5.
In the case of `CCNC(=O)C(=O)CC[C@H](NC(=O)c1cc2c(F)c(F)ccc2[nH]1)C(=O)Nc1cccn(CC(=O)NC2C3CC4CC(C3)CC2C4)c1=O` (stereo partly drawn) [Compound I-36, (S)-2-(4,5-difluoro-1H-indole-2-carboxamido)-N6-ethyl-N1-(1-(2-(2-adamantylamino)-2-oxoethyl)-2-oxo-1,2-dihydropyridin-3-yl)-5-oxohexanediamide], the Papp in series [1] was 1 to 10 ×10⁻⁶ cm/s. Moreover, in series [2], the IC50 is less than 150 nM. The logD in series [3] lay within 3 to 5.
In series [1], `CCNC(=O)C(=O)CC[C@H](NC(=O)c1[nH]c2ccccc2c1C)C(=O)Nc1cccn(CC(=O)NC2C3CC4CC(C3)CC2C4)c1=O` (stereo partly drawn) [Compound I-37, (S)-N1-ethyl-N6-(1-(2-(2-adamantylamino)-2-oxoethyl)-2-oxo-1,2-dihydropyridin-3-yl)-5-(3-methyl-1H-indole-2-carboxamido)-2-oxohexanediamide] gave a Papp of 1 to 10 ×10⁻⁶ cm/s. For the same molecule, the IC50 in series [2] is less than 150 nM. Further, the logD in series [3] lay in the range of 3 to 5.
Consider `CCNC(=O)C(=O)CC[C@H](NC(=O)c1nc2ccccc2[nH]1)C(=O)Nc1cccn(CC(=O)NC2C3CC4CC(C3)CC2C4)c1=O` (stereo partly drawn) [Compound I-38, (S)-2-(1H-benzo[d]imidazole-2-carboxamido)-N6-ethyl-N1-(1-(2-(2-adamantylamino)-2-oxoethyl)-2-oxo-1,2-dihydropyridin-3-yl)-5-oxohexanediamide], for which, in series [1], the Papp is less than 1 ×10⁻⁶ cm/s. The IC50 in series [2] was less than 150 nM. Moreover, the logD in series [3] was in the range of 3 to 5.
